PMC4982760, “Small-molecule inhibitors identify the RAD52-ssDNA interaction as critical for recovery from replication stress and for survival of BRCA2 deficient cells” (eLife, 2016)

Key:
RPA-ssDNA interaction = target: T1, RPA-ssDNA interaction (Homo sapiens, UniProt P15927+P27694+P35244); assay: FRET titration of the RPA-Cy3-dT30-Cy5 complex; type: binding; details: range of tested concentrations
T1 construct: made in house
Excerpt: In the cell, ssDNA is typically found in complex with Replication protein A (RPA), the major eukaryotic ssDNA-binding protein essential for DNA replication, repair and recombination ([Wold, 1997]; [Oakley and Patrick, 2010]; [Chen and Wold, 2014]). The RPA-ssDNA complex is a physiologically relevant substrate for the RAD52-mediated strand annealing. […] RPA binds ssDNA with high affinity and extends the ssDNA to its contour length. In our assays such an extension manifests as a distinct FRET state of ~0.3, which is readily distinguished from a FRET state of ~0.48 of free Cy3-dT30-Cy5 ssDNA, as well as ~0.63 FRET of the stoichiometric ssDNA-RPA-RAD52 complex (see Figure 2—figure supplement 1 and ([Grimme and Spies, 2011]) for details). […] Both, however, inhibited the RAD52 binding to and wrapping of RPA-coated ssDNA with IC50 values identical to those determined without RPA (Figure 2e and Figure 3e).
In all experiments, the FRET values for each data point were corrected for the effects of the compounds on the respective substrate in the absence of RAD52.

[1] = system: GM01604 cells (hTERT-immortalized wild-type human fibroblasts); assay: Neutral comet assay, MUS81/EME1/RAD52-dependent DSB formation; type: cell-based; details: GM01604, HU + UCN01
Excerpt: In human cells, RAD52 may perform both limited recombination-mediator function in the RAD51-dependent pathway ([Lok and Powell, 2012]; [Benson et al., 1998]; [Feng et al., 2011]) as well as additional RAD51-independent roles ([Lok and Powell, 2012]; [Murfuni et al., 2013]; [McIlwraith and West, 2008]). One of these HR independent roles of RAD52 involves stimulation of MUS81/EME1-dependent DSB formation at replication forks stalled by hydroxyurea (HU) treatment in the absence of cellular checkpoints ([Murfuni et al., 2013]). Since the most likely targets of these MUS81/EME1/RAD52-dependent DSBs are the DNA structures produced by RAD52 ([Murfuni et al., 2013]), we expected this activity to depend on the RAD52-ssDNA interaction (Figure 5a). To confirm this, we assessed DSB formation in checkpoint deficient cells using the neutral comet assay. These assays monitor MUS81/EME1/RAD52-dependent DSB formation upon induction of replication stress by HU treatment in primary fibroblasts immortalized by hTERT expression and treated with UNC01 to inhibit CHK1 kinase (Figure 5b). […] Importantly, these inhibitors recapitulate RAD52 depletion by inhibiting RAD52-MUS81-dependent DSBs at stalled replication forks (Figure 5a–b). […] It also confirms our previous supposition that the target of MUS81/EME1-mediated cleavage under these conditions are indeed the structures annealed by RAD52. […]
To induce RAD52-MUS81-dependent cleavage at arrested replication forks ([Murfuni et al., 2013]), hTERT-immortalized wild-type human fibroblasts (GM01604) were treated with 2 mM HU and 300 nM UCN01 for 6h, in the presence and absence of varying concentrations of ‘1’ or ‘6’. […] Slides were analyzed by a computerized image analysis system (Comet IV, Perceptive UK). To assess the quantity of DNA damage, computer-generated tail moment values (tail length x fraction of total DNA in the tail) were used. […] A minimum of 100 cells were analyzed for each compound concentration point.

GM01604 cells = assay: LIVE/DEAD cell viability assay; type: cell-based, human; details: 1 µM compound
Experimental: GM01604 cells were transfected with siRNAs directed against GFP (Ctrl), or against MUS81 (Qiagen), BRCA2 (Sigma-Aldrich), and RAD52 (Qiagen) 48 hr prior to addition of 1 µM ‘1’. Where indicated, the conditions of pathological replication were induced by treating cells with 2 mM HU and 300 nM UCN01 for 6 hr or by 18 hr treatment with 2 mM HU, in the presence or absence of ‘1’. Viability was evaluated by the LIVE/DEAD assay (Sigma-Aldrich) according to the manufacturer’s instructions. Cell number was counted in randomly chosen fields and expressed as percent of dead cells (number of red nuclear stained cells divided by the total cell number) corrected for the cell loss observed in the population. For each time point, at least 200 cells were counted.

[2] = target: T2, interaction between RAD52 and RPA proteins (Homo sapiens, UniProt P43351); assay: Ni-NTA pull-down of the RAD52-RPA interaction; type: binding; details: 3 μM RAD52, 3 μM RPA, 3 μM compound
T2 construct: made in house
T2 sequence (P43351 whole entry): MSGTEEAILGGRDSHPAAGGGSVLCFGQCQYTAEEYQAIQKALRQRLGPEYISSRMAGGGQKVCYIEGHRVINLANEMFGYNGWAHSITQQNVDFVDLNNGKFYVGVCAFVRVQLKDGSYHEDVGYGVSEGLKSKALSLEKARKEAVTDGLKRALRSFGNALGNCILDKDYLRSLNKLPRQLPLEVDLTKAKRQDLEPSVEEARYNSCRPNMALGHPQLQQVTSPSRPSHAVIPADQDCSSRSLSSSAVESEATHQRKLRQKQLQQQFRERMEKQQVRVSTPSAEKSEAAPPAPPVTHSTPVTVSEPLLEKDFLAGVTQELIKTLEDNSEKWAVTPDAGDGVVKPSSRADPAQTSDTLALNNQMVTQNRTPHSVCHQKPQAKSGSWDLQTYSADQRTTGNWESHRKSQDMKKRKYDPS
T2 sequence (P27694 whole entry partner): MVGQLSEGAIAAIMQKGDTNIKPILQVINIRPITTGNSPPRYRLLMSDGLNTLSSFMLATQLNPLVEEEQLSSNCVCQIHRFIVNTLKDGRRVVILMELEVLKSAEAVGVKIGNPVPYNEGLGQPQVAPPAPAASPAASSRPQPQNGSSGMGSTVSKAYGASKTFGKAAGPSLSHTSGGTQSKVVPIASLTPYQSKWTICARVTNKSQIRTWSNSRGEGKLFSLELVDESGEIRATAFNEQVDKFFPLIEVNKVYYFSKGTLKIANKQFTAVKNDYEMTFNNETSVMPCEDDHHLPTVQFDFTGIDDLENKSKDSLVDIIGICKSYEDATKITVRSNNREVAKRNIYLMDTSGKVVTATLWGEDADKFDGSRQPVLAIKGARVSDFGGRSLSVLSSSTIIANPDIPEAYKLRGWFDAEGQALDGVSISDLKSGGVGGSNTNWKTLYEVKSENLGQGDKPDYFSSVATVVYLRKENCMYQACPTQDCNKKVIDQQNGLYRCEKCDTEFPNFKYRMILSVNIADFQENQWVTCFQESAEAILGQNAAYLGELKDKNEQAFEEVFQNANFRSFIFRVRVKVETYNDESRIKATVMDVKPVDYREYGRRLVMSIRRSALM
T2 sequence (P15927 whole entry partner): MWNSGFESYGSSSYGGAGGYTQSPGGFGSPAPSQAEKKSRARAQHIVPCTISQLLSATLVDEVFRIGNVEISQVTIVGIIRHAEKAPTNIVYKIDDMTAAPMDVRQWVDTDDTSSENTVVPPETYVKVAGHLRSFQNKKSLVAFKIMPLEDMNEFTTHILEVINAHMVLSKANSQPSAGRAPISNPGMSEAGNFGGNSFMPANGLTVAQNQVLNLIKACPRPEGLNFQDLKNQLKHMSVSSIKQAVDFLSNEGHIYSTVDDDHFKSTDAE
T2 sequence (P35244 whole entry partner): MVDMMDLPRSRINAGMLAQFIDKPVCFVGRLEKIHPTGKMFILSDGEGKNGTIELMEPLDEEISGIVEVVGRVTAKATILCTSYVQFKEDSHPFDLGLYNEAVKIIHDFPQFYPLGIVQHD

T1 sequence (P27694 whole entry): as the sequence (P27694 whole entry partner) above
T1 sequence (P15927 whole entry): as the sequence (P15927 whole entry partner) above
T1 sequence (P35244 whole entry): as the sequence (P35244 whole entry partner) above

Oc1cc(O)c2c(c1)O[C@H](c1cc(O)c(O)c(O)c1)[C@H](O)C2 [Compound 1, (−)−Epigallocatechin]
effect on the RPA-ssDNA interaction (RPA-ssDNA interaction): neither ‘1’ nor ‘6’ affected the RPA-ssDNA interaction
concentration sufficient for same level of DSB reduction as siRNA treatment [1]: 1 µM
concentration with same reduction in DSBs as siRNA depletion of RAD52 [1]: 500 nM
cell death (GM01604 cells; BRCA2-depleted GM01604, after replication stress (HU + UCN01)): ~ 80%
dead cells (GM01604 cells; MUS81-depleted GM01604, checkpoint-deficient, HU treated): ~60%
dead cells (GM01604 cells; MUS81-depleted GM01604, untreated): approximately 40%
effect on the RAD52-RPA interaction [2]: neither ‘1’ nor ‘6’ interfered with the interaction between the two proteins
